Values belong to the compound of their own block, whether it stands above or below them.
Test system: dopamine D-1 receptors (cyclic AMP efflux, striatal tissue)
Assay: tissue or blood
Experimental: A second, particularly sensitive indicator of D-1 agonist activity is the determination of the cyclic AMP efflux in tissue slices using a procedure based on Stoof and Kebabian (loc. cit). In this procedure, striatal tissue is dissected from rat brains and chopped into 0.3 mm.×[…]. fragments. The tissue fragments are suspended in the appropriate buffer system (Earl's balanced salt solution, for example) and the suspension is continuously aerated with 95:5 O2 /CO2 while being maintained at 37° C. Just prior to use, the tissue fragments are transferred to fresh media to which is added bovine serum albumin (2.5 mg./ml.) and 3-isobutyl-1-methylxanthine (1 millimolar) to block degradation of cyclic AMP. The tissue fragments are incubated in buffer without drugs and are then transferred to the same media with added drug. Aliquots of incubation media, with and without drugs, are assayed for cyclic AMP concentration by a specific radioimmunoassay. The effect of the drug or drugs on efflux is expressed as a percentage of the resting efflux. The following medium was employed:
Sulpiride is known to be an antagonist on pituitary D-2 receptors. Addition of sulpiride to a test system, such as that described above, blocks any D-2 effect of a drug in reducing cyclic AMP production.

SMILES: CCCN1CCC[C@@H]2Cc3[nH]ncc3C[C@H]21 [4aR, 8aR enantiomer, 4aR,8aR-5-n-propyl-4,4a,5,6,7,8,8a,9-octahydro-1H(and 2H)-pyrazolo[4,3-g]-quinoline]
cyclic AMP production increase by SKF38393 after addition of the compound (compound at 0.5×10^-6 M added to SKF38393 10^-6 molar (145% alone)): 42%

SMILES: Oc1cc2c(cc1O)C(c1ccccc1)CNCC2 (stereo not shown) [SKF38393, 1,2,3,4-tetrahydro-7,8-dihydroxy-1-phenyl-1H-3-benzazepine]
activation at 1 µM (Rattus norvegicus, read-out: increase of cyclic AMP production): 145%

effect of sulpiride on the lowering of the SKF38393 cyclic AMP increase by the trans-(-)-enantiomer (sulpiride 10^-6 M): suppressed
SMILES: CCN1CCCC1CNC(=O)c1cc(S(N)(=O)=O)ccc1OC (stereo not shown) [sulpiride]
effect of sulpiride on the increase in cyclic AMP efflux caused by A (sulpiride 10^-6 M with A 5 × 10^-7 M): no effect on the increase in cyclic AMP efflux

From US4528290A, “Stimulating dopamine D-1 receptors” (Eli Lilly and Company, priority 1984, dated 1985)
